Source: paper PMC12569736 (Journal of Cosmetic Dermatology, 2025)
Each block holds one compound with its values, some of them ahead of it.

What was measured:
[1] = molecular target: T1, human tyrosinase (hTYR) (Homo sapiens, UniProt P14679); test: L‐DOPA oxidation assay for tyrosinase activity (MNT‐1 cell lysate); format: biochemical; settings: for inhibitory effect on hTYR at maximum tested concentration: up to 33.3 μM; for IC50: MNT‐1 lysate, L‐DOPA 4 mM, pH 6.9, read-out: IC50 against hTYR; for inhibition at 0.4 µM: read-out: inhibitory activity against hTYR compared to the control
T1 construct: tyrosinase enzyme solution derived from MNT‐1 cells; endogenous in cells; host or cells: MNT-1 human melanoma cell line (crude lysate supernatant)
T1 sequence (P14679 19-529): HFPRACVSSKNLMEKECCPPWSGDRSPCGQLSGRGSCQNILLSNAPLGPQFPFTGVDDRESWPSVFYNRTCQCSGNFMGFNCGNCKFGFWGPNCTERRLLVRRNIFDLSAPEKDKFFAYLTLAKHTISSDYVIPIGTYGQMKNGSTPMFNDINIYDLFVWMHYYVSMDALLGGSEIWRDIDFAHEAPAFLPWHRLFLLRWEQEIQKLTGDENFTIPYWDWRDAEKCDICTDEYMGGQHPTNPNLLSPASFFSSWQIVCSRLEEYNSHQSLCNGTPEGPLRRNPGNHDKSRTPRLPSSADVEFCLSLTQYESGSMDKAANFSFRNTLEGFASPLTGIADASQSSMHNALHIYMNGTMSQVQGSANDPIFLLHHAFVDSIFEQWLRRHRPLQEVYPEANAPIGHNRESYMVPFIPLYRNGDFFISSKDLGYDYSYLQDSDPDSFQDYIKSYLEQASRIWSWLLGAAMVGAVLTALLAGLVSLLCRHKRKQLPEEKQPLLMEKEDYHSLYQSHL
Description: The hTYR‐mediated L‐DOPA oxidation assay was performed according to Winder and Harris. MNT‐1 cells were resuspended in 0.05 M sodium phosphate buffer (pH 6.9) and sonicated for 1 min. After incubation on ice for 3–5 min, the mixture underwent a second sonication. The lysate was centrifuged at 13 000 rpm for 15 min at 4°C, and the supernatant was collected and kept on ice.
For the assay, 20 μL of crude enzyme solution and 80 μL sodium phosphate buffer were added to a 96‐well plate and centrifuged at 1000 rpm for 30 s. Subsequently, 2 μL of different concentrations of test compounds were added to each well, followed by centrifugation at 1000 rpm for 30 s. Finally, 100 μL L‐DOPA (final concentration 4 mM) was added to initiate the reaction. The microplate reader (Synergy H1 Hybrid Reader, BioTek) was used to monitor the reaction at 26°C, measuring absorbance at 475 nm every minute for 60 min. IC50 values were calculated using GraphPad software based on Vmax values from the kinetic curves.
The L‐DOPA tyrosinase assay was performed using a tyrosinase enzyme solution derived from MNT‐1 cells in 50 mM sodium phosphate buffer (pH 6.9), with a substrate (L‐DOPA) concentration of 4 mM and various concentrations of inhibitors as indicated. Data represent mean ± standard deviation of three independent experiments.

[2] = molecular target: hTYR enzyme; parameters: method as in PMID 29427586; settings: purified hTYR; read-out: IC50 against the hTYR enzyme; cited from earlier work
[3] = system: MelanoDerm skin model; parameters: method as in PMID 29427586; settings: cited from earlier work
[4] = system: melasma; parameters: method as in PMID 34676600; settings: moderate‐to‐severe melasma, 24 weeks of application, cited from earlier work
[5] = system: MNT‐1 cells; test: Melanin content in MNT‐1 cells after 6 days of treatment; format: cell-based, human; settings: for inhibition of melanin production: 0.37 μM; for inhibition of melanin production / inhibition at 1.1 µM / inhibition at 3.3 µM / inhibition at 10 µM: 6 days; for IC50 / inhibition at 1.1 µM / inhibition at 3.3 µM / inhibition at 10 µM: Homo sapiens; for IC50: 144 h, MNT‐1, 6 days, read-out: IC50 of melanin production; for inhibition at 1.1 µM / inhibition at 3.3 µM / inhibition at 10 µM: MNT-1, 144 h, read-out: inhibition of melanin production
Description: MNT‐1 cells were exposed to varying concentrations of test compounds for 6 days. After treatment, cells were harvested and lysed in RIPA buffer on ice for 20 min. Lysates were centrifuged at 13 000 rpm for 10 min at 4°C, and the supernatant was collected. Protein concentration was quantified using a BCA Protein Assay Kit (Thermo Fisher). To extract melanin, cell pellets were dissolved in 1 M NaOH and incubated for 3 h at 80°C. Absorbance at 405 nm was measured using a Synergy H1 Hybrid Reader. Melanin content was quantified by referencing a standard curve of synthetic melanin (maximum concentration 50 μg/mL, 2‐fold gradient dilution, 8 concentration points). Melanin content was normalized to protein concentration (μg melanin/mg protein), and IC50 values were calculated using GraphPad software.
FIGURE 3 Inhibition of melanin production in MNT‐1 by KT‐939, Thiamidol, and 4‐butylresorcinol. MNT‐1 cells were treated with different concentrations of KT‐939, Thiamidol, or 4‐butylresorcinol for 6 days. The melanin content was quantified based on the standard curve of melanin, and the melanin content per mg of protein was utilized for IC50 calculations with GraphPad software.

[6] = system: NRF2/ARE signaling pathway; test: NRF2/ARE‐luciferase reporter assay in HEK293T cells; format: cell-based, human; settings: 10 µM, 48 h, relative to DMSO
Description: The NRF2‐responsive firefly luciferase reporter plasmid (pGL4.27_ARE NRF2‐SPE) and Renilla luciferase control plasmid (pRL‐TK) were co‐transfected into HEK293T cells using Lipofectamine 2000. After 24 h, transfected cells were seeded into 96‐well plates and incubated overnight. Test compounds (10 μM) were added, and cells were incubated for an additional 48 h. Luciferase activities were measured using the Dual‐Lumi Luciferase Reporter Assay Kit (Beyotime Biotechnology), following the manufacturer's instructions.
FIGURE 6 KT‐939 activates the ARE/NRF2 signaling pathway. HEK293T cells transfected with an NRF2‐responsive firefly luciferase reporter were treated with 10 µM of KT‐939, hydroquinone (Hq), 377, or 4‐butylresorcinol for 48 h. Luminescence signals were normalized to renilla and expressed relative to DMSO control. *** p < 0.001 vs DMSO.

inhibitory effect on hTYR at maximum tested concentration [1]: no significant inhibitory effects
SMILES: NC(=O)c1cccnc1 [nicotinamide]

inhibitory effect on hTYR at maximum tested concentration [1]: no significant inhibitory effects
SMILES: CC1(C)C=Cc2c(ccc3c2OC[C@@H](c2ccc(O)cc2O)C3)O1 [glabridin]

IC50 [1]: 0.33 µM
inhibition at 0.4 µM ([1]; at 0.4 μM): 53.5%
IC50 [5]: 1.3 µM
SMILES: CC(C)C(=O)Nc1nc(-c2ccc(O)cc2O)cs1 [Thiamidol, isobutylamido thiazolyl resorcinol]
IC50 [2]: 1.1 µM
IC50 [3]: 0.9 µM
tolerability [4]: favorable tolerability
melasma severity compared to baseline and vehicle ([4]; Fitzpatrick phototypes III–V): significantly reduced melasma severity
inhibition of melanin production [5]: neither Thiamidol nor 4‐butylresorcinol showed inhibitory activity
inhibition at 1.1 µM [5]: 27.2%
inhibition at 3.3 µM [5]: 62.2%
inhibition at 10 µM [5]: 76.5%

inhibitory effect on hTYR at maximum tested concentration [1]: no significant inhibitory effects
SMILES: OC[C@H]1O[C@@H](Oc2ccc(O)cc2)[C@H](O)[C@@H](O)[C@@H]1O [arbutin]

IC50 [1]: 6.04 µM
inhibition at 0.4 µM ([1]; at 0.4 μM): 13.4%
SMILES: Oc1ccc(/C=C/c2cc(O)cc(O)c2)cc1 [resveratrol]

IC50 [1]: 7.09 µM
inhibition at 0.4 µM ([1]; at 0.4 μM): 9.7%
IC50 [5]: 8 µM
SMILES: CCCCc1ccc(O)cc1O [4‐butylresorcinol]
NRF2 signaling pathway activation (luciferase reporter) [6]: no effect on NRF2 activation
inhibition of melanin production [5]: neither Thiamidol nor 4‐butylresorcinol showed inhibitory activity
inhibition at 1.1 µM [5]: 15.8%
inhibition at 3.3 µM [5]: 32.6%
inhibition at 10 µM [5]: 48.4%

IC50 [1]: 21.3 µM
inhibitory activity against hTYR compared to the control ([1]; at 0.4 μM): 2.7%
SMILES: CC(c1ccccc1)c1ccc(O)cc1O (centres unmarked) [compound 377, phenethyl resorcinol]
NRF2 signaling pathway activation (luciferase reporter) [6]: no effect on NRF2 activation

inhibitory effect on hTYR at maximum tested concentration [1]: no significant inhibitory effects
SMILES: Oc1ccc(O)cc1 [hydroquinone]
NRF2 signaling pathway activation (luciferase reporter) [6]: no effect on NRF2 activation
